US11311609B2, “Regulating chimeric antigen receptors” (DANA-FARBER CANCER INSTITUTE, INC., priority 2017, dated 2022)

How the values were obtained:
Assay type in all cases: cell-based
FKBP* = target: T1, FKBP* (Homo sapiens, UniProt P62942, F37V); assay: Immunoblot of FKBP* degradation in 293FT cells (CRBN-WT or CRBN-/-); conditions: 293FT CRBN-WT; pretreated two hours with 1 uM Carfilzomib, 0.5 uM MLN4924 or 10 uM Lenalidomide, then 4 hour dFKBP13
T1 construct: HA; expressed in transfected cells; host or cells: 293FT cells (CRBN-WT or CRBN-/-)
Experimental: FIG. 6 is an immunoblot of cells treated with bi-functional molecules described in the present invention. As described in Example 3, 293FT cells (CRBN-WT or CRBN−/−) expressing either HA-tagged FKBP12WT or FKBP* (also referred to as dFKBP12* herein) were treated with indicated concentrations of dFKBP7 for 4 hours.
FIG. 8 is an immunoblot of cells treated with heterobifunctional compounds described in the present invention. Isogenic 293FT cells (CRBN-WT or CRBN−/−) expressing either FKBP12WT or FKBP* were treated with 100 nM of either dFKBP7 or dFKBP13 for 4 hours (Example 5).
FIG. 9 is an immunoblot of cells treated with heterobifunctional compounds described in the present invention. Isogenic 293FT cells (CRBN-WT or CRBN−/−) expressing HA-tagged FKBP* were treated with the indicated dose of dFKBP13 for 4 hours (Example 6).
FIG. 11 is an immunoblot of cells treated with heterobifunctional compounds described in the present invention. 293FT cells (CRBN-WT) expressing FKBP* were pretreated with 1 uM Carfilzomib (proteasome inhibitor), 0.5 uM MLN4924 (neddylation inhibitor), and 10 uM Lenalidomide (CRBN binding ligand) for two hours prior to a 4 hour treatment with dFKBP13 (Example 8). Degradation of HA-tagged FKBP* by dFKBP13 was rescued by the proteasome inhibitor Carfilzomib, establishing a requirement for proteasome function.
The dTAG is predicated on the selectivity of FKBP* specific ligands over endogenous, wild type FKBP. In 293T cells expressing wild type FKBP12 or FKBP*, dFKBP7 induces targeted degradation only in FKBP* expressing cells. An immunoblot of cells treated with bi-functional molecules described in the present invention was performed. 293FT cells (CRBN-WT or CRBN−/−) expressing either HA-tagged FKBP12WT or FKBP* were treated with indicated concentrations of dFKBP7 for 4 hours.
In 293T cells expressing wild type FKBP12 or FKBP*, treatment with dFKBP7 and dFKBP13 induces targeted degradation only in FKBP* expressing cells. Isogenic 293FT cells (CRBN-WT or CRBN−/−) were engineered to express either FKBP12WT or FKBP*. Cells were treated with 100 nM of either dFKBP7 or dFKBP13 for 4 hours before lysates were prepared for western immunoblot analysis.
In an effort to define the optimal concentration of dFKB13 heterobifunctional compounds to induce degradation of FKBP*, degradation was measured upon treatment with increasing concentrations of dFKBP13. Isogenic 293FT cells (CRBN-WT or CRBN−/−) were engineered to expressed HA-tagged FKBP*. Cells were treated with the indicated dose of dFKBP13 for 4 hours before lysates were prepared for western immunoblot analysis.
293FT cells (CRBN-WT) were engineered to express FKBP*. Cells were pretreated with 1 uM Carfilzomib (proteasome inhibitor), 0.5 uM MLN4924 (neddylation inhibitor), and 10 uM Lenalidomide (CRBN binding ligand) for two hours prior to a 4-hour treatment with dFKBP13. Lysates were prepared and western immunoblot analysis performed. Degradation of HA-tagged FKBP* by dFKBP13 was rescued by the proteasome inhibitor Carfilzomib, establishing a requirement for proteasome function.

[1] = system: KRAS signaling (pMEK and pAKT); assay: Immunoblot of downstream surrogates of KRAS signaling in NIH3T3 cells expressing FKBP*-KRASG12V; conditions: NIH3T3 cells expressing dTAG-KRASG12V; 1 μM, 24 hours
Experimental: (§1) FIG. 19 is an immunoblot of NIH3T3 cells expressing KRASG12V allele fused to FKBP* in the N-terminus or C-terminus. Cells were treated with 500 nM dFKBP7 for the indicated time. Cells were harvested and immunoblotted to measure degradation of FKBP*-KRASG12V and downstream surrogates of KRAS signaling (e.g. pMEK and pAKT).
(§2) FIG. 20 is an immunoblot of NIH3T3 cells expressing FKBP* fused to the N-terminus of KRASG12V treated with 1 uM of the indicated dFKBP heterobifunctional compounds for 24 hours. Cells were harvested and immunoblotted to measure degradation of FKBP*-KRASG12V and downstream surrogates of KRAS signaling (e.g. pMEK and pAKT).
as §2, with “21” for “20”, “with” for “with 1 uM of”, “concentrations of dFKBP13” for “dFKBP heterobifunctional compounds”
FIG. 22 is an immunoblot of NIH3T3 cells expressing FKBP* fused to the N-terminus of KRASG12V treated with 1 uM dFKBP13 for the indicated time. Cells were harvested and immunoblotted to measure degradation of FKBP*-KRASG12V and downstream surrogates of KRAS signaling (e.g. pMEK and pAKT).
Cells were treated with 500 nM dFKBP7 for the indicated time. […]

FKBP*-KRASG12V = assay: Immunoblot of FKBP*-KRASG12V degradation in NIH3T3 cells; conditions: NIH3T3 cells expressing dTAG-KRASG12V; 1 μM, 24 hours
Experimental: as §1
(§3) Cells were harvested and immunoblotted to measure degradation of FKBP*-KRASG12V and downstream surrogates of KRAS signaling (e.g. pMEK and pAKT).
as §3, §3
Cells were treated with 500 nM dFKBP7 for the indicated time. Cells were harvested and immunoblotted to measure degradation of FKBP*-KRAS and downstream surrogates of KRAS signaling (e.g. pMEK and pAKT).
(§4) Cells were harvested and immunoblotted to measure degradation of FKBP*-KRAS and downstream surrogates of KRAS signaling (e.g. pMEK and pAKT).
as §4
To evaluate the kinetic control of targeted degradation of dTAG-KRAS, dFKBP13 was administered by increased duration. […]

T1 sequence (P62942 whole entry F37V): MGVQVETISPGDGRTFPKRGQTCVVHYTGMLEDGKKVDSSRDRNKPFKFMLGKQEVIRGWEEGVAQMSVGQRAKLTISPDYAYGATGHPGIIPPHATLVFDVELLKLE

Effect of pretreatment on dFKBP13-induced degradation of HA-tagged FKBP* (FKBP*) | SMILES | Inhibition of downstream signaling (pMEK, pAKT) [1] | Degradation of FKBP*-KRAS (FKBP*-KRASG12V)
rescued | CC(C)C[C@H](NC(=O)[C@H](CCc1ccccc1)NC(=O)CN1CCOCC1)C(=O)N[C@@H](Cc1ccccc1)C(=O)N[C@@H](CC(C)C)C(=O)[C@@]1(C)CO1 [Carfilzomib] | – | –
rescued HA-tagged FKBP* | NS(=O)(=O)OC[C@@H]1C[C@@H](n2ccc3c(N[C@H]4CCc5ccccc54)ncnc32)C[C@@H]1O [MLN4924] | – | –
– | CC[C@H](C(=O)N1CCCC[C@H]1C(=O)O[C@H](CCc1ccc(OC)c(OC)c1)c1cccc(OCC(=O)NCCCCCCCCNC(=O)COc2cccc3c2C(=O)N(C2CCC(=O)NC2=O)C3=O)c1)c1cc(OC)c(OC)c(OC)c1 (some centres unmarked) [dFKBP9] | inhibition of downstream signaling | potent degradation of FKBP*-KRAS

SMILES | Effect of pretreatment on dFKBP13-induced degradation of HA-tagged FKBP* (FKBP*) | Inhibition of downstream signaling (pMEK, pAKT) [1] | Degradation of FKBP*-KRAS (FKBP*-KRASG12V)
Nc1cccc2c1CN(C1CCC(=O)NC1=O)C2=O (centres unmarked) [Lenalidomide] | abolished dFKBP13-dependent FKBP* degradation | – | –
